Tested on: T1, Rab3a-a-Syn fusion construct
T1 construct: single-chain fusion: 6-His-tag, Rab3a 15-186 (C137A, wild-type Q81), GSGS linker, alpha-synuclein 101-140 (not phosphorylated); pET15b, E. coli; with Alpha-synuclein
Assay: malachite green phosphate release, Michaelis-Menten fit
Assay type: biochemical
Conditions: pH 7.5, 20 mM Hepes, 2 mM MgCl2, 1 mM DTT, 37 °C; a-Syn C-terminal tail covalently fused; no free a-Syn, no SUV
Description: malachite green phosphate release, Michaelis-Menten fit on Rab3a-a-Syn fusion construct

Km: 174 ± 46 µM
SMILES: Nc1nc2c(ncn2[C@@H]2O[C@H](COP(=O)(O)OP(=O)(O)OP(=O)(O)O)[C@@H](O)[C@H]2O)c(=O)[nH]1 [GTP]

Source: PMC9396396, “Molecular and functional interactions of alpha-synuclein with Rab3a” (The Journal of Biological Chemistry, 2022)
